Results as given in ChEMBL document CHEMBL3612019, “Revisiting 1,3,4-Oxadiazol-2-ones: Utilization in the Development of ABHD6 Inhibitors” (Bioorg Med Chem, 2015).

Experiments:
[1] = biological target: Cannabinoid receptor 2 (Homo sapiens) (UniProt P34972); test: Agonist activity at human CB2R expressed in CHO cell membranes at 10 uM by [35S]GTPgammaS binding assay; assay type: functional
[2] = biological target: T1, Monoacylglycerol lipase ABHD6 (Homo sapiens, UniProt Q9BV23); test: Inhibition of human ABHD6 expressed in HEK293 cells at 1 uM pre-incubated for 10 mins before 2-AG substrate addition followed by rapid 40 fold compound dilution measured after 30 mins by HPLC method; assay type: cell-based
T1 sequence (Q9BV23 whole entry): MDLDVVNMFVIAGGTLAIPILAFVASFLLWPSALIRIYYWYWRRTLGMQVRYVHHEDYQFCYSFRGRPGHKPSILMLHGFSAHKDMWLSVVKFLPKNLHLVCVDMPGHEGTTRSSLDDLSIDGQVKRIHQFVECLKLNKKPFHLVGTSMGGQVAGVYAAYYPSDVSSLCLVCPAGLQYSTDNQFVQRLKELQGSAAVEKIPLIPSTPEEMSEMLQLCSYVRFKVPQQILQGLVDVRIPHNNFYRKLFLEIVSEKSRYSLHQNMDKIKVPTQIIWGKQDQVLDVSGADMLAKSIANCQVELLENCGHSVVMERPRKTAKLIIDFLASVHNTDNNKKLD

Sequence of Cannabinoid receptor 2 (Homo sapiens) (P34972 whole entry): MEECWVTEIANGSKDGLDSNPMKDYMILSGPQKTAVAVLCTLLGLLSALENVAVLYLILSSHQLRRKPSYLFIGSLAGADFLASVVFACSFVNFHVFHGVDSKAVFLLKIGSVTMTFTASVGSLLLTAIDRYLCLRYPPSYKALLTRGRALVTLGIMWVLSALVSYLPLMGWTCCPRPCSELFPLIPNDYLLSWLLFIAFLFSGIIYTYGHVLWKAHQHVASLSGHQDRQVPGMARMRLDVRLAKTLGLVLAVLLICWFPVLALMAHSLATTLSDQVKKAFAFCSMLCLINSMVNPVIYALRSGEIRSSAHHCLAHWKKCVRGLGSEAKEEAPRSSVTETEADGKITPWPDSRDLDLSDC

Activity [1]: 107%
IC50 [2]: 3.8 µM
Structure (SMILES): COc1nn(Cc2cccc(N)c2)c(=O)o1
